Here are results for 61 molecules from US9458137B2, “Substituted indol-5-ol derivatives and their therapeutical applications” (NantBioScience, Inc., priority 2012, dated 2016).

The subject of the test is abl kinase. As to the kind of experiment: abl kinase inhibition assay. The format is biochemical.

For the molecule `Cc1cc2c(F)c(Oc3nc(Nc4cc(C5CC5)[nH]n4)cc(N4CCN(C)CC4)n3)ccc2[nH]1` [Example 10], the “% Inhibition @1 μM Abl” value was 112%.
`Cc1cc2c(F)c(Oc3nc(Nc4cc(C5CC5)[nH]n4)cc(N4CCNCC4)n3)ccc2[nH]1` [Example 11, N-(5-cyclopropyl-1H-pyrazol-3-yl)-2-((4-fluoro-2-methyl-1H-indol-5-yl)oxy)-6-(piperazin-1-yl)pyrimidin-4-amine]: the “% Inhibition @1 μM Abl” value was determined as 111%.
The figure for `Cc1cc2c(F)c(Oc3nc(Nc4cc(C5CC5)[nH]n4)cc(N4CCN(CCO)CC4)n3)ccc2[nH]1` [Example 12] is 112%; for `Cc1cc2c(F)c(Oc3nc(Nc4cc(C5CC5)[nH]n4)cc(N4CCOCC4)n3)ccc2[nH]1` [Example 13] it is 112%; for `Cc1cc2c(F)c(Oc3nc(Nc4cc(C5CC5)[nH]n4)cc(N4CC(O)C4)n3)ccc2[nH]1` [Example 15] it is 108%.
As for `COC1CCN(c2cc(Nc3cc(C4CC4)[nH]n3)nc(Oc3ccc4[nH]c(C)cc4c3F)n2)C1` (stereo not shown) [Example 16], the “% Inhibition @1 μM Abl” value is given as 103%.
Take `Cc1cc2c(F)c(Oc3nc(Nc4cc(C5CC5)[nH]n4)cc(N4CCC(N(C)C)C4)n3)ccc2[nH]1` (stereo not shown) [Example 17]: the “% Inhibition @1 μM Abl” value is on record as 108%.
As to `CC(=O)N1CCN(c2cc(Nc3cc(C4CC4)[nH]n3)nc(Oc3ccc4[nH]c(C)cc4c3F)n2)CC1` [Example 18], the “% Inhibition @1 μM Abl” value stood at 107%.
Regarding `Cc1cc2c(F)c(Oc3nc(Nc4cc(C5CC5)[nH]n4)cc(N4CCNC(=O)C4)n3)ccc2[nH]1` [Example 19], the “% Inhibition @1 μM Abl” value was found to be 108%.
As to `Cc1cc2c(F)c(Oc3nc(Nc4cc(C5CC5)[nH]n4)cc(N4C[C@@H](C)N[C@@H](C)C4)n3)ccc2[nH]1` [Example 20], the “% Inhibition @1 μM Abl” value is reported as 107%.
For the molecule `Cc1cc2c(F)c(Oc3nc(Nc4cc(C5CC5)[nH]n4)cc(N4CCC(O)CC4)n3)ccc2[nH]1` [Example 21], the “% Inhibition @1 μM Abl” value is listed as 107%.
Regarding `Cc1cc2c(F)c(Oc3nc(Nc4cc(C5CC5)[nH]n4)cc(N4CCC(F)CC4)n3)ccc2[nH]1` [Example 22], the “% Inhibition @1 μM Abl” value stood at 108%.
For `Cc1cc2c(F)c(Oc3nc(Nc4cc(C5CC5)[nH]n4)cc(N4CCN(S(C)(=O)=O)CC4)n3)ccc2[nH]1` [Example 23], the “% Inhibition @1 μM Abl” value came to 108%.
As to `Cc1cc2c(F)c(Oc3nc(Nc4cc(C5CC5)[nH]n4)cc(N4CCN(c5ccccn5)CC4)n3)ccc2[nH]1` [Example 25], the “% Inhibition @1 μM Abl” value was determined as 108%.
Take `Cc1cc2c(F)c(Oc3nc(Nc4cc(C5CC5)[nH]n4)cc(N4CCN(c5cccnc5)CC4)n3)ccc2[nH]1` [Example 26]: the “% Inhibition @1 μM Abl” value worked out at 109%.
The value for `Cc1cc2c(F)c(Oc3nc(Nc4cc(C5CC5)[nH]n4)cc(N4CCN(c5ccncc5)CC4)n3)ccc2[nH]1` [Example 27] was 108%; that for `COCCN1CCN(c2cc(Nc3cc(C4CC4)[nH]n3)nc(Oc3ccc4[nH]c(C)cc4c3F)n2)CC1` [Example 28] was 108%.
For the molecule `Cc1cc2c(F)c(Oc3nc(Nc4cc(C5CC5)[nH]n4)cc(N4CCOC(CN(C)C)C4)n3)ccc2[nH]1` (stereo not shown) [Example 30], the “% Inhibition @1 μM Abl” value amounted to 110%.
The figure for `CCN1CCN(c2cc(Nc3cc(C4CC4)[nH]n3)nc(Oc3ccc4[nH]c(C)cc4c3F)n2)CC1` [Example 31] is 115%.
On to `Cc1cc2c(F)c(Oc3nc(Nc4cc(C5CC5)[nH]n4)cc(N4CCN(CC(F)(F)F)CC4)n3)ccc2[nH]1` [Example 38], for which the “% Inhibition @1 μM Abl” value was determined as 108%.
The value for `Cc1cc2c(F)c(Oc3nc(Nc4cc(C5CC5)[nH]n4)cc(N4CCOC(CN)C4)n3)ccc2[nH]1` (stereo not shown) [Example 39] was 110%; that for `CCC1CN(c2cc(Nc3cc(C4CC4)[nH]n3)nc(Oc3ccc4[nH]c(C)cc4c3F)n2)CCN1` (stereo not shown) [Example 41] was 108%; that for `Cc1cc2c(F)c(Oc3nc(Nc4cc(C5CC5)[nH]n4)cc(N4CCN(CCN(C)C)CC4)n3)ccc2[nH]1` [Example 42] was 110%.
Take `Cc1cc2c(F)c(Oc3nc(Nc4cc(C5CC5)[nH]n4)cc(N4CCNC(CO)C4)n3)ccc2[nH]1` (stereo not shown) [Example 43]: the “% Inhibition @1 μM Abl” value amounted to 111%.
On to `COCC1CCN(c2cc(Nc3cc(C4CC4)[nH]n3)nc(Oc3ccc4[nH]c(C)cc4c3F)n2)C1` (stereo not shown) [Example 44], for which the “% Inhibition @1 μM Abl” value amounted to 94%.
`Cc1cc2c(F)c(Oc3nc(Nc4cc(C5CC5)[nH]n4)cc(N4CCN(CCF)CC4)n3)ccc2[nH]1` [Example 45]: the “% Inhibition @1 μM Abl” value was 107%.
Turning to `C/C=C/c1cc(Nc2cc(N3CCN(C)CC3)nc(Oc3ccc4[nH]c(C)cc4c3F)n2)n[nH]1` [Example 53], the “% Inhibition @1 μM Abl” value came out at 109%.
The value for `C/C=C/c1cc(Nc2cc(N3CCN(CCOC)CC3)nc(Oc3ccc4[nH]c(C)cc4c3F)n2)n[nH]1` [Example 54] was 108%; that for `C/C=C/c1cc(Nc2cc(N3CCN(S(C)(=O)=O)CC3)nc(Oc3ccc4[nH]c(C)cc4c3F)n2)n[nH]1` [Example 55] was 110%; that for `C/C=C/c1cc(Nc2cc(N3CCN(C(C)=O)CC3)nc(Oc3ccc4[nH]c(C)cc4c3F)n2)n[nH]1` [Example 56] was 111%.
In the case of `C/C=C/c1cc(Nc2cc(N3CCS(=O)(=O)CC3)nc(Oc3ccc4[nH]c(C)cc4c3F)n2)n[nH]1` [Example 57], the “% Inhibition @1 μM Abl” value amounted to 111%.
`C/C=C/c1cc(Nc2cc(N3CCC(OC)CC3)nc(Oc3ccc4[nH]c(C)cc4c3F)n2)n[nH]1` [Example 58]: the “% Inhibition @1 μM Abl” value amounted to 112%.
Take `C/C=C/c1cc(Nc2cc(N3CCC(O)CC3)nc(Oc3ccc4[nH]c(C)cc4c3F)n2)n[nH]1` [Example 59]: the “% Inhibition @1 μM Abl” value is given as 112%.
The figure for `C/C=C/c1cc(Nc2cc(N3CCC(OC)C3)nc(Oc3ccc4[nH]c(C)cc4c3F)n2)n[nH]1` (stereo not shown) [Example 60] is 111%.
Turning to `C/C=C/c1cc(Nc2cc(N3CCC(O)C3)nc(Oc3ccc4[nH]c(C)cc4c3F)n2)n[nH]1` (stereo not shown) [Example 61], the “% Inhibition @1 μM Abl” value amounted to 112%.
`C/C=C/c1cc(Nc2cc(N3CCC(N(CC)CC)C3)nc(Oc3ccc4[nH]c(C)cc4c3F)n2)n[nH]1` (stereo not shown) [Example 62]: the “% Inhibition @1 μM Abl” value is given as 111%.
Turning to `C/C=C/c1cc(Nc2cc(N3CCOCC3)nc(Oc3ccc4[nH]c(C)cc4c3F)n2)n[nH]1` [Example 67], the “% Inhibition @1 μM Abl” value was found to be 112%.
Consider `C/C=C/c1cc(Nc2cc(N3CCNCC3)nc(Oc3ccc4[nH]c(C)cc4c3F)n2)n[nH]1` [Example 68], for which the “% Inhibition @1 μM Abl” value came out at 107%.
Consider `C/C=C/c1cc(Nc2cc(N3CCN(CCF)CC3)nc(Oc3ccc4[nH]c(C)cc4c3F)n2)n[nH]1` [Example 74], for which the “% Inhibition @1 μM Abl” value worked out at 111%.
The figure for `Cc1cc2c(F)c(Oc3nc(Nc4cc(C5CC5)[nH]n4)cc(N4CCN(C)CC4)n3)cc(F)c2[nH]1` [Example 81] is 110%; for `Cc1cc2c(F)c(Oc3nc(Nc4cc(C5CC5)[nH]n4)cc(N4CCNCC4)n3)cc(F)c2[nH]1` [Example 82] it is 106%.
`Cc1cc2c(F)c(Oc3nc(Nc4cc(C5CC5)[nH]n4)cc(N4CCN(CCO)CC4)n3)cc(F)c2[nH]1` [Example 83]: the “% Inhibition @1 μM Abl” value is 110%.
Turning to `Cc1cc2c(F)c(Oc3nc(Nc4cc(C5CC5)[nH]n4)cc(N4CCOCC4)n3)cc(F)c2[nH]1` [Example 84], the “% Inhibition @1 μM Abl” value is 103%.
The figure for `C/C=C/c1cc(Nc2cc(N3CCN(C)CC3)nc(Oc3cc(F)c4[nH]c(C)cc4c3F)n2)n[nH]1` [Example 87] is 112%; for `C/C=C/c1cc(Nc2cc(N3CCN(CCO)CC3)nc(Oc3cc(F)c4[nH]c(C)cc4c3F)n2)n[nH]1` [Example 88] it is 113%; for `C/C=C/c1cc(Nc2cc(N3CCOCC3)nc(Oc3cc(F)c4[nH]c(C)cc4c3F)n2)n[nH]1` [Example 89] it is 112%.
Turning to `C/C=C/c1cc(Nc2cc(N3CCNCC3)nc(Oc3cc(F)c4[nH]c(C)cc4c3F)n2)n[nH]1` [Example 90], the “% Inhibition @1 μM Abl” value came out at 112%.
On to `C/C=C/c1cc(Nc2cc(N3CCC(O)C3)nc(Oc3cc(F)c4[nH]c(C)cc4c3F)n2)n[nH]1` (stereo not shown) [Example 92], for which the “% Inhibition @1 μM Abl” value came out at 111%.
The value for `C/C=C/c1cc(Nc2cc(N3CCC(OC)C3)nc(Oc3cc(F)c4[nH]c(C)cc4c3F)n2)n[nH]1` (stereo not shown) [Example 93] was 111%; that for `C/C=C/c1cc(Nc2cc(N3CCC(N(CC)CC)C3)nc(Oc3cc(F)c4[nH]c(C)cc4c3F)n2)n[nH]1` (stereo not shown) [Example 94] was 111%; that for `C/C=C/c1cc(Nc2cc(N3CCC(O)CC3)nc(Oc3cc(F)c4[nH]c(C)cc4c3F)n2)n[nH]1` [Example 95] was 110%.
For `C/C=C/c1cc(Nc2cc(N3CCC(OC)CC3)nc(Oc3cc(F)c4[nH]c(C)cc4c3F)n2)n[nH]1` [Example 96], the “% Inhibition @1 μM Abl” value is on record as 110%.
On to `C/C=C/c1cc(Nc2cc(N3CCN(S(C)(=O)=O)CC3)nc(Oc3cc(F)c4[nH]c(C)cc4c3F)n2)n[nH]1` [Example 98], for which the “% Inhibition @1 μM Abl” value is listed as 111%.
The value for `C/C=C/c1cc(Nc2cc(N3CCN(CC)CC3)nc(Oc3cc(F)c4[nH]c(C)cc4c3F)n2)n[nH]1` [Example 99] was 113%; that for `CCN1CCN(c2cc(Nc3cc(C)[nH]n3)nc(Oc3cc(F)c4[nH]c(C)cc4c3F)n2)CC1` [Example 103] was 113%; that for `Cc1cc(Nc2cc(N3CCN(CCO)CC3)nc(Oc3cc(F)c4[nH]c(C)cc4c3F)n2)n[nH]1` [Example 105] was 112%.
As to `Cc1cc(Nc2cc(N3CCNCC3)nc(Oc3cc(F)c4[nH]c(C)cc4c3F)n2)n[nH]1` [Example 106], the “% Inhibition @1 μM Abl” value was 109%.
Take `Cc1cc(Nc2cc(N3CCOCC3)nc(Oc3cc(F)c4[nH]c(C)cc4c3F)n2)n[nH]1` [Example 107]: the “% Inhibition @1 μM Abl” value amounted to 111%.
For `C/C=C/c1cc(Nc2cc(N3CCN(C)CC3)nc(Oc3ccc4[nH]c(C)cc4c3Cl)n2)n[nH]1` [Example 112], the “% Inhibition @1 μM Abl” value came out at 113%.
In the case of `C/C=C/c1cc(Nc2cc(N3CCN(C)CC3)nc(Oc3ccc4c(cc(C)n4C)c3F)n2)n[nH]1` [Example 120], the “% Inhibition @1 μM Abl” value is given as 115%.
As to `C/C=C/c1cc(Nc2cc(N3CCOCC3)nc(Oc3ccc4c(cc(C)n4C)c3F)n2)n[nH]1` [Example 121], the “% Inhibition @1 μM Abl” value is on record as 116%.
